How the values were obtained:
[1] = system: A549-ACE2 infected with SARS-CoV-2; experiment: SARS-CoV-2 infection rate relative to DMSO; higher = more infection; settings: 24 h
[2] = system: A549-ACE2 infected with SARS-CoV-2; experiment: morphology score (similarity to uninfected cells); higher = more like uninfected cells; settings: 24 h
[3] = system: Vero E6; experiment: drug sensitivity score (DSS) for viability; higher = more toxic; extreme values may be limits of the assay; settings: 72 h
[4] = system: Calu-3; experiment: as above; settings: 72 h
[5] = system: U2OS; experiment: as above; settings: 72 h
[6] = system: HepG2; experiment: as above; settings: 72 h
[7] = system: Caco-2; experiment: as above; settings: 72 h
[8] = system: A549-ACE2; experiment: drug-induced phospholipidosis relative to tamoxifen; higher = more phospholipidosis
[9] = system: Vero E6; experiment: relative viability EC50 (midpoint between 100% and the lowest measured viability); higher = less toxic; settings: 72 h
[10] = system: Calu-3; experiment: as above; settings: 72 h
[11] = system: U2OS; experiment: as above; settings: 72 h
[12] = system: HepG2; experiment: as above; settings: 72 h
[13] = system: A549-ACE2 infected with SARS-CoV-2; experiment: cell count relative to DMSO; higher = less toxic; settings: 24 h
[14] = system: Vero E6; experiment: cell viability relative to DMSO; higher = less toxic; settings: 72 h
[15] = system: Calu-3; experiment: as above; settings: 72 h
[16] = system: U2OS; experiment: as above; settings: 72 h
[17] = system: HepG2; experiment: as above; settings: 72 h
[18] = system: Caco-2; experiment: as above; settings: 72 h
[19] = system: A549-ACE2; experiment: phospholipidosis EC50; higher = less potent phospholipidosis inducer; settings: 24 h
[20] = system: Caco-2; experiment: relative viability EC50 (midpoint between 100% and the lowest measured viability); higher = less toxic; settings: 72 h

Cc1c(O)cccc1C(=O)N[C@@H](CSc1ccccc1)[C@H](O)CN1C[C@H]2CCCC[C@H]2C[C@H]1C(=O)NC(C)(C)C [nelfinavir]
Settings | SARS-CoV-2 infection rate, [1] [%] | cell count, [13] [%] | cell viability, [14] [%] | cell viability, [15] [%] | cell viability, [16] [%] | cell viability, [17] [%] | cell viability, [18] [%] | morphology score, [2]
1 nM | – | – | 105 | 101 | 98.2 | 107 | 104 | –
10 nM | – | – | 99.7 | 87.1 | 92.5 | 96.7 | 93.4 | –
100 nM | – | – | 88.6 | 137 | 96.8 | 89.5 | 95.1 | –
0.3 µM | 95 | 104 | – | – | – | – | – | 0.27
1000 nM | – | – | 97.3 | 109 | 93.5 | 90.2 | 70.1 | –
3 µM | 102 | 96 | – | – | – | – | – | 0.2
10 µM | 69 | 113 | – | – | – | – | – | 0.69
10000 nM | – | – | 93.6 | 86.7 | 86.9 | 76.4 | 78.7 | –
30 µM | 10 | 97 | – | – | – | – | – | 0.42

Settings | drug sensitivity score | phospholipidosis EC50 [µM] | relative viability EC50 [µM]
[3] | 0 | – | –
[4] | 0 | – | –
[5] | 0 | – | –
[6] | 1.8 | – | –
[7] | 5.8 | – | –
[9] | – | – | > 10
[10] | – | – | > 10
[11] | – | – | > 10
[12] | – | – | > 10
[19] | – | 11.6 | –

drug-induced phospholipidosis [%], [8]
Settings | 0.3 µM | 0.833333 µM | 3.33333 µM | 6.66667 µM | 10 µM | 30 µM
24 h | 1.63 | 2.14 | 9.03 | 22.8 | 35.3 | 64.7
48 h | 1.06 | -2.76 | 10.6 | 21.3 | 40.6 | –
72 h | 1.29 | -2.99 | 4.63 | 19.4 | 37 | –

CN(C)CCCCC(=O)Nc1ccc(NC(=S)NC(=O)c2ccc(C(C)(C)C)cc2)cc1 [tenovin-6]
Settings | SARS-CoV-2 infection rate, [1] [%] | cell count, [13] [%] | cell viability, [14] [%] | cell viability, [15] [%] | cell viability, [16] [%] | cell viability, [17] [%] | cell viability, [18] [%] | morphology score, [2]
1 nM | – | – | 99.4 | 91.1 | 94 | 107 | 92.9 | –
10 nM | – | – | 96.7 | 107 | 97.9 | 101 | 100 | –
0.1 µM | 91 | 100 | – | – | – | – | – | 0.22
100 nM | – | – | 104 | 101 | 96.3 | 110 | 98.5 | –
0.3 µM | 90 | 102 | – | – | – | – | – | 0.15
1 µM | 93 | 98 | – | – | – | – | – | -0.08
1000 nM | – | – | 103 | 95.1 | 101 | 88.8 | 94.6 | –
3 µM | 23 | 113 | – | – | – | – | – | 0.8
10000 nM | – | – | 27.8 | 4.2 | 5.4 | 0.8 | 12.2 | –

Settings | drug sensitivity score | phospholipidosis EC50 [µM] | relative viability EC50 [µM]
[3] | 3.8 | – | –
[4] | 6 | – | –
[5] | 5.2 | – | –
[6] | 7.3 | – | –
[7] | 5.7 | – | –
[9] | – | – | 3.37
[10] | – | – | 2.77
[11] | – | – | 3.24
[12] | – | – | 2.24
[19] | – | 2.91 | –
[20] | – | – | 2.68

drug-induced phospholipidosis [%], [8]
Settings | 0.3 µM | 0.833333 µM | 3.33333 µM | 6.66667 µM | 10 µM
24 h | -1.65 | -1.47 | 61.4 | 90.4 | 56.6
48 h | 1.91 | 0.33 | 30 | – | –
72 h | 0.744 | -3.12 | 26.8 | – | –

Reference: the supplement of paper PMC13380429
